Measurements: US7405317B2, “Phosphate-bearing prodrugs of sulfonyl hydrazines as hypoxia-selective antineoplastic agents” (priority 2004, dated 2008)
Like-named read-outs stand apart in the source and are kept apart here.

Tests used:
[1] = test system: CHO-SCS-II (non-transfected parental line); assay: Aerobic/hypoxic cell survival, parental CHO cells; assay type: cell-based; settings: drug 10 μM
Experimental: (§1) EMT6 or CHO (parental or human cytochrome P-450 reductase transfected) cells, seeded in glass milk dilution bottles, were gassed for 2 hours through a rubber septum fitted with 13 gauge (inflow) and 18 gauge (outflow) needles with a mixture of 5% CO2, oxygen at various concentrations, with the balance of the mixture made up of nitrogen, to establish various hypoxic conditions. Drugs were then injected without disrupting hypoxia. After two hours, cells were collected and plated in a clonogenic assay to determine the surviving fraction, compared to untreated controls.
(§2) For in vitro analysis, KS119W must be converted to KS119OH (1) in an AP-catalyzed reaction shown above in FIG. 2, as the phosphorylated parent drug cannot cross cell membranes. KS119OH is then used in all subsequent in vitro studies shown in this section.
(§3) Like KS119, cytochrome P-450 reductase can activate KS1190H under hypoxic conditions.

[2] = test system: CHO-450red (human cytochrome P-450 reductase transfected CHO cells); assay: Aerobic/hypoxic cell survival, cytochrome P-450 reductase transfected CHO cells; assay type: cell-based; settings: drug 10 μM
Experimental: as §1, §2, §3

[3] = test system: EMT-6 murine mammary carcinoma; assay type: in vivo, mice; settings: for tumor growth inhibition: EMT-6, KS119W daily 97 mg/kg for 7 doses, CTX 100 mg/kg ip once per week for 4 doses
Experimental: (§4) The anti-tumor effects of aforementioned prodrugs are evaluated in both solid and liquid tumor models, including the B16-F10 murine melanoma, HTB177 human lung carcinoma models, DLD1 human colon carcinoma, EMT-6 murine mammary gland carcinoma, L1210 murine leukemia, lymphoma, prostate cancer, pancreatic cancer, and head-and-neck cancer. The prodrugs are given intravenously, orally, or intraperitoneally at doses from 10 mg/kg to 2000 mg/kg; they are give at different dosing schedules such as 4 times daily, once daily, or once every several days for up to 60 doses. Testing tumor cells were implanted subcutaneously into mice, which were randomized into groups immediately after tumor cell implantation (Day 0). Mice were injected intraperitoneally (ip) with either a bolus injection of 0.1 mL PBS or drug. The treatment was carried out in a designed dosing schedule. Tumor measurement in three dimensions was determined once a week with the formula L×H×W/2, where L, H, and W represent length, height, and width, respectively.
(§5) Efficacy of KS119 was studied in murine tumor model and human xenograft models. EMT-6 murine mammary carcinoma cells (3×10^5 cells/mouse) were implanted subcutaneously into Balb/c mice. H460 human lung carcinoma cells, HT29 human colon carcinoma cells and SHP77 human lung carcinoma cells were established as solid xenografts in nu/nu CD-1 mice and Scid/Beige mice with 7×10^7 cells/mouse, respectively. After implantation, tumors were allowed to grow to a size of 150 to 200 mm^3 before starting treatment with KS119. KS119 was formulated in a solvent containing polyethylene glycol 300 (PEG), ethyl alcohol, citric acid, and ascorbic acid.
(§6) Efficacies of KS119W and KS119 were compared with equivalence molar doses in EMT-6 tumor and H460 tumor models. KS119W was formulated with 0.25M sodium bicarbonate solution. The treatment was started when tumors researched 150 to 200 mm^3, and lasted up to 2 weeks. KS119 at doses of 80 and 100 mg/kg and KS119W at doses of 97.6 and 121.3 mg/kg were daily administrated into mice via ip injection. […] To assess the toxicity of treatment, body weight and peripheral blood cell count were monitored after treatment.
(§7) Combined therapy of KS119W with cytoxan (CTX) was evaluated by using KS119W at dose below the MTD in combination with nontoxic dose of CTX against EMT-6 murine mammary carcinoma and H460 human lung carcinoma in CD-1 nude mice. The tumors were allowed to grow to a size of approximately 200 mm^3. In H460 tumor model, the animals received either with 4 doses 180 mg/kg and 1 dose 240 mg/kg of KS119 or CTX at dose of 100 mg/kg per dose per animal, ip injecting the drugs on 15, 22, 27, 34 and 43 days after the tumor implantation. In the combination studies, CTX was given two hours after dosing KS119W.

[4] = test system: H460 human lung carcinoma; assay type: in vivo, mice; settings: for tumor growth inhibition: H460 in CD-1 nude mice, KS119W 4 doses 180 mg/kg and 1 dose 240 mg/kg, CTX 100 mg/kg per dose, ip on days 15, 22, 27, 34, 43, CTX two hours after KS119W, FIG. 9; for reduction of final tumor volume compared with control group: H460, daily ip, FIG. 8
Experimental: as §4, §5, §6, §7

[5] = test system: SHP77 human lung carcinoma; assay: In vivo anti-tumor activity, SHP77 xenograft; design: species or system mice; settings: SHP77/Scid-Beige; dose VNP40541 110 mpk, VNP40551 85 mpk
Experimental: as §4, with “respectively. The toxicity of these drugs in mice was mild as determined by body weight loss and animal appearance.” for “respectively.”
Efficacy of KS119 was studied in murine tumor model and human xenograft models. EMT-6 murine mammary carcinoma cells (3×10^5 cells/mouse) were implanted subcutaneously into Balb/c mice. […]

[6] = Maximum tolerated dose (MTD) finding; assay type: in vivo, mice
Experimental: In order to fairly select a better compound from two enantiomers of KS119W for future clinical development, finding maximum tolerated dose (MTD) for VNP40541 (R-form) and VNP40551 (S-form) was conducted and the results were shown as Table 3.

[7] = test system: EMT6 murine mammary carcinoma cells; assay: Aerobic/hypoxic cell survival (clonogenic assay), EMT6; assay type: cell-based; settings: for in vitro cytotoxic activity to EMT6 cells versus parental racemic drug (potency and aerobic/hypoxic differential): de-phosphorylated enantiomers, aerobic/hypoxic cell assay; for cell kill: 0.1% oxygen, 10 μM drug concentration; for cell kill / cytotoxicity to EMT6 cells under oxygenated conditions: FIG. 5; for drug activity as a function of oxygen concentration: 10 or 25 μM, oxygen 0.05% to 21%, FIG. 6; for cytotoxicity to EMT6 cells under oxygenated conditions: normal air (21% oxygen), concentrations up to 25 μM
Experimental: as §1, §2
Moreover, the R- and S-enantiomers of KS119W (VNP40541 and VNP40551) were converted to the corresponding de-phosphorylated forms for study in the in vitro aerobic/hypoxic cell assay.

[8] = Toxicity of treatment in tumor-bearing mice (body weight, blood cell count, appearance); assay type: in vivo; settings: for toxicity of treatment (body weight, peripheral blood cell count): KS119 80 and 100 mg/kg, KS119W 97.6 and 121.3 mg/kg, daily ip
Experimental: as §4, with “respectively. The toxicity of these drugs in mice was mild as determined by body weight loss and animal appearance.” for “respectively.”
Efficacies of KS119W and KS119 were compared with equivalence molar doses in EMT-6 tumor and H460 tumor models. KS119W was formulated with 0.25M sodium bicarbonate solution. The treatment was started when tumors researched 150 to 200 mm^3, and lasted up to 2 weeks. KS119 at doses of 80 and 100 mg/kg and KS119W at doses of 97.6 and 121.3 mg/kg were daily administrated into mice via ip injection. […] The toxicity of KS119 and KS119W were dose-dependent. To assess the toxicity of treatment, body weight and peripheral blood cell count were monitored after treatment.
as §7, with “KS119W. […] The inhibition of combination therapy was statistically significant against all control groups with p values of 0.003, 0.015 and 0.038, respectively. Additive toxicity at the doses used for combination was manageable; while the 180 mg/kg qw ×4 doses of KS119W alone caused a maximum net body weight loss of 4.5%, the same dose in combination with 4 doses of CTX at 100 mg/kg per week caused 8.6% weight loss but no death. A similar degree of growth inhibition was also observed with EMT-6 tumor model. […]” for “KS119W.”

[9] = Solubility of KS119 in co-solvent system; assay type: physicochemical; settings: polyethylene glycol (PEG) and ethanol co-solvent system, organic solvent or mixture, read-out: solubility in co-solvent system like polyethylene glycol (PEG) and ethanol
[10] = KS119W 97.2 mg/kg ×10 doses, KS119 equal molar dose 80 mg/kg
[11] = KS119W 121.6 mg/kg ×7 doses, KS119 equal molar dose 100 mg/kg

C[C@H](OC(=O)N(N(CCCl)S(C)(=O)=O)S(C)(=O)=O)c1ccc([N+](=O)[O-])c(OP(=O)(O)O)c1 [VNP40551]
Surviving fraction at 0.1% oxygen [1]: 0.1188
Surviving fraction in air [1]: 1.148
Surviving fraction at 0.1% oxygen [2]: 0.002553
Surviving fraction in air [2]: 1.015
Inhibition (%) ([3]; EMT6/BLAB-c Mice, dose VNP40541 85-115 mpk, VNP40551 55-85 mpk): 52-78%
Inhibition (%) ([4]; H460/Nude Mice, dose VNP40541 80-140 mpk, VNP40551 40-80 mpk): 53-80%
Inhibition (%) [5]: 82%
MTD ([6]; BALB/c mice, × 5): 85 mpk
MTD ([6]; Nude CD-1 mice, × 10): 80 mpk
MTD ([6]; Scid/Beige mice, × 8): 85 mpk

O=P1(N(CCCl)CCCl)NCCCO1 (stereo not shown) [CTX, reference compound]
tumor growth inhibition [3]: negligible effect
tumor growth inhibition [4]: 54%

C[C@H](OC(=O)N(N(CCCl)S(C)(=O)=O)S(C)(=O)=O)c1ccc([N+](=O)[O-])c(O)c1 [S-KS119OH]
in vitro cytotoxic activity to EMT6 cells versus parental racemic drug (potency and aerobic/hypoxic differential) [7]: very similar to the parental racemic drug

CC(OC(=O)N(N(CCCl)S(C)(=O)=O)S(C)(=O)=O)c1ccc([N+](=O)[O-])c(OP(=O)(O)O)c1 (stereo not shown) [KS119W, 1,2-Bis(methylsulfonyl)-2-(2-chloroethyl)hydrazine-carboxylic acid 1-(3-dihydrogenphosphonoxy-4-nitrophenyl)ethyl ester]
Surviving fraction at 0.1% oxygen [1]: 0.3336
Surviving fraction in air [1]: 1.185
Surviving fraction at 0.1% oxygen [2]: 0.009444
Surviving fraction in air [2]: 0.8791
tumor growth inhibition [3]: 59%
reduction of final tumor volume compared with control group [4, 10]: 60%
reduction of final tumor volume compared with control group [4, 11]: 78%
tumor growth inhibition [4]: 78%
toxicity of treatment (body weight, peripheral blood cell count) [8]: not significant hematological toxicity or severe weight loss
maximum net body weight loss ([8]; KS119W 180 mg/kg qw ×4 doses alone or with 4 doses of CTX at 100 mg/kg per week): 4.5%

CC(OC(=O)N(N(CCCl)S(C)(=O)=O)S(C)(=O)=O)c1ccc([N+](=O)[O-])c(O)c1 (racemic) [KS119OH]
cell kill [7]: ~5 orders of magnitude
drug activity as a function of oxygen concentration [7]: significant drug activity at all oxygen concentrations below 10% oxygen
cytotoxicity to EMT6 cells under oxygenated conditions [7]: virtually inactive

C[C@@H](OC(=O)N(N(CCCl)S(C)(=O)=O)S(C)(=O)=O)c1ccc([N+](=O)[O-])c(O)c1 [R-KS119OH]
in vitro cytotoxic activity to EMT6 cells versus parental racemic drug (potency and aerobic/hypoxic differential) [7]: very similar to the parental racemic drug

CC(OC(=O)N(N(CCCl)S(C)(=O)=O)S(C)(=O)=O)c1ccc([N+](=O)[O-])cc1 (stereo not shown) [KS119, 1,2-Bis(methylsulfonyl)-2-(2-chloroethyl)-hydrazine carboxylic acid 1-(4-nitrophenyl)ethyl ester, reference compound]
solubility [9]: < 5000 µg/mL
cell kill [7]: ~5 orders of magnitude
drug activity as a function of oxygen concentration [7]: significant drug activity at all oxygen concentrations below 10% oxygen
cytotoxicity to EMT6 cells under oxygenated conditions [7]: virtually inactive
reduction of final tumor volume compared with control group [4, 10]: 40%
reduction of final tumor volume compared with control group [4, 11]: 40%
toxicity of treatment (body weight, peripheral blood cell count) [8]: not significant hematological toxicity or severe weight loss
